Assay results: patent US20150291565A1, “INDOLE COMPOUNDS AND THEIR USE AS ANTIMICROBIALS” (Memorial Sloan-Kettering Cancer Center, priority 2012, published 2015)
≈ marks a conversion by molar mass, not a printed value. Where “and” joins values, the source holds several entries; their conditions need not be identical. Equal entries are not always repeated. Where two headings read alike, the source gives them in different places.

Experiments:
[1] = test system: Mycobacterium tuberculosis; assay: Time kill curve, liquid culture, M. tuberculosis; assay type: cell-based; settings: 1.9 micromolar; vs DMSO control; FIG. 1 left-hand graph
Procedure: Either Mycobacterium tuberculosis or Mycobacterium smegmatis liquid cultures were incubated with SKI-1 (356313) at a concentration of 1.9 micromolar and viable bacterial titer was determined over the time period indicated by culturing serial dilutions on agar media. Control cultures were treated with an equivalent volume of DMSO.

P. aeruginosa ATCC 9027 = assay: Broth dilution MIC, P. aeruginosa ATCC 9027; assay type: cell-based; settings: Pseudomonas aeruginosa
S. aureus BAA-39 (MDR) = assay: Broth dilution MIC, S. aureus BAA-39; assay type: cell-based; settings: for MIC: Staphylococcus aureus, BAA39
[2] = test system: E. faecium ATCC 700221 (VRE); assay: Broth dilution MIC, E. faecium ATCC 700221; assay type: cell-based
Mycobacterium smegmatis = assay: Time kill curve, liquid culture, M. smegmatis; assay type: cell-based; settings: 1.9 micromolar; vs DMSO control; FIG. 1 right-hand graph
M. smegmatis Mc2155 = assay: MIC against M. smegmatis Mc2155; assay type: cell-based; settings: Mycolicibacterium smegmatis
M. smegmatis (mc2155) = assay: Disk diffusion assay, zone of inhibition, M. smegmatis; assay type: cell-based
E. faecium CT-26 = assay: Broth dilution MIC, E. faecium CT-26; assay type: cell-based; settings: Enterococcus faecium
[3] = test system: methicillin-resistant S. aureus (ATCC 33591); assay: Thigh infection model in neutropenic CD1 mice, MRSA; settings: 24 hours; for Log reduction: vs vehicle
K. pneumoniae ATCC 13883 = assay: Broth dilution MIC, K. pneumoniae ATCC 13883; assay type: cell-based; settings: Klebsiella pneumoniae
E. coli ATCC 25922 = assay: Broth dilution MIC, E. coli ATCC 25922; assay type: cell-based; settings: Escherichia coli
[4] = test system: E. faecalis ATCC 29212 (VRE); assay: Broth dilution MIC, E. faecalis ATCC 29212; assay type: cell-based
[5] = test system: S. aureus ATCC 29213 (MSSA); assay: Broth dilution MIC, S. aureus ATCC 29213; assay type: cell-based; settings: Staphylococcus aureus
[6] = test system: S. aureus ATCC 33591 (MRSA); assay: Broth dilution MIC, S. aureus ATCC 33591; assay type: cell-based; settings: for MIC: Staphylococcus aureus
M. tuberculosis = assay: Testing against M. tuberculosis; assay type: cell-based; settings: recent testing
MRSA = assay: Disk diffusion assay, zone of inhibition, MRSA; assay type: cell-based, Staphylococcus aureus
E. coli ECM 1694 = assay: Broth dilution MIC, E. coli ECM 1694; assay type: cell-based; settings: Escherichia coli
C. albicans ATCC 14053 = assay: Broth dilution MIC, C. albicans ATCC 14053; assay type: cell-based; settings: Candida albicans, ATCC14053; Table 1; range 64 down to 0.12 μg/ml
Procedure: In vitro Anti-bacterial & Anti-fungal Activity Assay: All test compounds were prepared as 6.4 mg/ml stock solutions in DMSO and further diluted according to the NCCLS M7-A6 (Page 5) document with sterile water or appropriate diluent. A working stock of 256 μg/ml was used to do 1:2 serial dilutions in 96-well plates. […] The inoculums were prepared by making a direct sterile water suspension of isolated colonies from 18 to 24 hr agar plates for all organisms (Mueller Hinton, Blood Agar or SDA plates). Each bacterial suspension was adjusted to read between 0.09 and 0.11 absorbance at 620 nm. […] These were further diluted 1/100 in appropriate broth for inoculating the 96-well plates. The C. albicans suspension was adjusted to read between 70 and 75% Transmittance at 530 nm and then diluted 1/500 in RPMI+MOPS broth. All aerobic bacterial and fungal plates were incubated for 18 hrs. at 35° C. […] Plates were read using a Beckman Automated Plate Reader at 650 nm. Readings were confirmed by visual examination of plates. (See Table 1, Table 2, Table 3, and Table 4). […] It is important to note that positive results against C. albicans are often indicative of broad spectrum antifungal activity, while negative results are not necessarily conclusory of a lack of activity against other fungus.

[7] = disk diffusion zone of inhibition

c1cc(C2=NCCN2)ccc1Nc1ccc(-c2cc3ccc(C4=NCCN4)cc3[nH]2)cc1 [SKI-1]
Viable bacterial titer over time (time kill curve) [1]: bactericidal | MIC (P. aeruginosa ATCC 9027; ATCC 9026 / ATCC 9027, Table 2, broth dilution MIC in ug/ml, read-out: MIC P aeruginosa ATCC 9026): 1 µg/mL (≈ 2.38 µM) | MIC (P. aeruginosa ATCC 9027; ATCC9027, Table 1, range 64 down to 0.12 μg/ml, read-out: MIC P. aeruginosa ATCC 9027): 1 µg/mL (≈ 2.38 µM) | MIC (P. aeruginosa ATCC 9027; ATCC9027, Table 4, broth dilution MIC according to CLSI standards (NAEJA), read-out: MIC P. aeruginosa ATCC 9027): 0.5 µg/mL (≈ 1.19 µM) | MIC (S. aureus BAA-39 (MDR); Table 1, range 64 down to 0.12 μg/ml, read-out: MIC S. aureus BAA-39): 0.25 µg/mL (≈ 0.595 µM) | MIC (S. aureus BAA-39 (MDR); Table 2, broth dilution MIC in ug/ml, read-out: MIC S aureus BAA-39 MDR): 0.25 µg/mL (≈ 0.595 µM) | MIC (S. aureus BAA-39 (MDR); Table 4, broth dilution MIC according to CLSI standards (NAEJA), read-out: MIC MDR S. aureus BAA-39): 0.25 µg/mL (≈ 0.595 µM) | MIC S. aureus BAA-39 (S. aureus BAA-39 (MDR); Table 3, starting at 4 μg/ml): 0.25 µg/mL (≈ 0.595 µM) | MIC ([2]; Enterococcus faecium, Table 1, range 64 down to 0.12 μg/ml, read-out: MIC E. faecium ATCC 700221): ≤ 0.12 µg/mL | MIC ([2]; Enterococcus faecium, Table 3, starting at 4 μg/ml, read-out: MIC E. faecium ATCC 700221): 0.06 µg/mL (≈ 0.143 µM) | MIC ([2]; Enterococcus faecium, Table 4, broth dilution MIC according to CLSI standards (NAEJA), read-out: MIC VRE E. faecium ATCC 700221): 0.03 µg/mL (≈ 0.0713 µM) | MIC ([2]; Table 2, broth dilution MIC in ug/ml, read-out: MIC E faecium ATCC 700221 VRE): 0.06 µg/mL (≈ 0.143 µM) | Viable bacterial titer over time (time kill curve) (Mycobacterium smegmatis): bactericidal | MIC (M. smegmatis Mc2155): 0.2 µM (≈ 0.0841 µg/mL) | Zone Size M. smegmatis (M. smegmatis (mc2155); [7]): 19.6 mm | Average Zone Size MC2155 (n = 3) (M. smegmatis (mc2155); n = 3): 12.3 | MIC (E. faecium CT-26; CT26, Table 1, range 64 down to 0.12 μg/ml, read-out: MIC E. faecium CT-26): ≤ 0.12 µg/mL | MIC (E. faecium CT-26; CT26, Table 2, broth dilution MIC in ug/ml, read-out: MIC E faecium CT-25): 0.06 µg/mL (≈ 0.143 µM) | MIC (E. faecium CT-26; CT26, Table 3, starting at 4 μg/ml, read-out: MIC E. faecium CT-26): 0.06 µg/mL (≈ 0.143 µM) | MIC (E. faecium CT-26; CT26, Table 4, broth dilution MIC according to CLSI standards (NAEJA), read-out: MIC E. faecium CT-26): 0.015 µg/mL (≈ 0.0357 µM) | Mean bacterial tissue burden (log10/thigh) ([3]; 10 mg/kg BID IP): 8.3106 log10/thigh | Log reduction ([3]; 10 mg/kg BID IP, listed as 356313, 10 mg/kg): 0.14 Log and 0.1382 Log | Mean bacterial tissue burden (log10/thigh) ([3]; 20 mg/kg BID IP): 7.7428 log10/thigh | Log reduction ([3]; 20 mg/kg BID IP, listed as 356313, 20 mg/kg): 0.71 Log and 0.7060 Log | MIC (K. pneumoniae ATCC 13883; ATCC13883, Table 1, range 64 down to 0.12 μg/ml, read-out: MIC K. pneumoniae ATCC 13883): 1 µg/mL (≈ 2.38 µM) | MIC (K. pneumoniae ATCC 13883; ATCC13883, Table 2, broth dilution MIC in ug/ml, read-out: MIC K pneumonia ATCC 13883): 1 µg/mL (≈ 2.38 µM) | MIC (K. pneumoniae ATCC 13883; ATCC13883, Table 4, broth dilution MIC according to CLSI standards (NAEJA), read-out: MIC K. pneumoniae ATCC 13883): 0.5 µg/mL (≈ 1.19 µM) | MIC (E. coli ATCC 25922; ATCC 25921 / ATCC 25922, Table 2, broth dilution MIC in ug/ml, read-out: MIC E. coli ATCC 25921): 1 µg/mL (≈ 2.38 µM) | MIC (E. coli ATCC 25922; ATCC25922, Table 1, range 64 down to 0.12 μg/ml, read-out: MIC E. coli ATCC 25922): 1 µg/mL (≈ 2.38 µM) | MIC (E. coli ATCC 25922; ATCC25922, Table 4, broth dilution MIC according to CLSI standards (NAEJA), read-out: MIC E. coli ATCC 25922): 0.5 µg/mL (≈ 1.19 µM) | MIC ([4]; Enterococcus faecalis, Table 1, range 64 down to 0.12 μg/ml, read-out: MIC E. faecalis ATCC 29212): 0.25 µg/mL (≈ 0.595 µM) | MIC ([4]; Enterococcus faecalis, Table 4, broth dilution MIC according to CLSI standards (NAEJA), read-out: MIC VRE E. faecalis ATCC 29212): 0.12 µg/mL (≈ 0.285 µM) | MIC ([4]; Table 2, broth dilution MIC in ug/ml, read-out: MIC E faecalis ATCC 29212 VRE): 0.25 µg/mL (≈ 0.595 µM) | MIC E. faecalis ATCC 29212 ([4]; Table 3, starting at 4 μg/ml): 0.25 µg/mL (≈ 0.595 µM) | MIC ([5]; Table 3, starting at 4 μg/ml, read-out: MIC S. aureus ATCC 29213): 0.25 µg/mL (≈ 0.595 µM) | MIC ([5]; Table 1, range 64 down to 0.12 μg/ml, read-out: MIC S. aureus ATCC 29213): 0.25 µg/mL (≈ 0.595 µM) | MIC ([5]; Table 2, broth dilution MIC in ug/ml, read-out: MIC S aureus ATCC 29213 MSSA): 0.25 µg/mL (≈ 0.595 µM) | MIC ([5]; Table 4, broth dilution MIC according to CLSI standards (NAEJA), read-out: MIC MSSA S. aureus ATCC 29213): 0.25 µg/mL (≈ 0.595 µM) | MIC ([6]; Table 1, range 64 down to 0.12 μg/ml, read-out: MIC S. aureus ATCC 33591): 0.25 µg/mL (≈ 0.595 µM) | MIC ([6]; Table 2, broth dilution MIC in ug/ml, read-out: MIC S aureus ATCC 33591 MRSA): 0.25 µg/mL (≈ 0.595 µM) | MIC ([6]; Table 4, broth dilution MIC according to CLSI standards (NAEJA), read-out: MIC MRSA S. aureus ATCC 33591): 0.12 µg/mL (≈ 0.285 µM) | MIC S. aureus ATCC 33591 ([6]; Table 3, starting at 4 μg/ml): 0.25 µg/mL (≈ 0.595 µM) | Activity against M. tuberculosis (M. tuberculosis): comparable to that observed for M. smegmatis | Average Zone Size MRSA (MRSA): 11 | Zone Size MRSA (MRSA; [7]): 11 mm | MIC (E. coli ECM 1694; ECM1694, Table 1, range 64 down to 0.12 μg/ml, read-out: MIC E. coli ECM 1694): 0.25 µg/mL (≈ 0.595 µM) | MIC (E. coli ECM 1694; ECM1694, Table 2, broth dilution MIC in ug/ml, read-out: MIC E. coli ECM 1693): 0.25 µg/mL (≈ 0.595 µM) | MIC (E. coli ECM 1694; ECM1694, Table 3, starting at 4 μg/ml, read-out: MIC E. coli ECM 1694): 0.5 µg/mL (≈ 1.19 µM) | MIC (E. coli ECM 1694; ECM1694, Table 4, broth dilution MIC according to CLSI standards (NAEJA), read-out: MIC E. coli ECM 1694): 0.25 µg/mL (≈ 0.595 µM) | MIC (C. albicans ATCC 14053): 1 µg/mL (≈ 2.38 µM)
